PMC7376644 (Pharmacology Research & Perspectives, 2020)

How the values were obtained:
Type in all cases: in vitro ADME, human
[1] = Intrinsic clearance, substrate depletion approach; details: human, human liver microsomes, pH 7.4; HLM, 1 µmol/L substrate
Description: (§1) The generic conditions were previously described by Masimirembwa and co‐workers. ^24 , ^25 Each reaction mixture consisted of substrate incubated with appropriate enzyme, substrate, and NADPH in potassium phosphate buffer pH 7.4 in a final volume of 200 µL. The substrate was diluted to 40% ACN so that the percent organic component in the final solution was maintained at 1%. The reactions were quenched with 3 volumes of stop solution containing ACN and 0.8% formic acid at 0, 5, 10, 20, 30, 40, and 60 minutes. This was followed by centrifugation at 4500 g for 20 minutes. An aliquot (50 µL) supernatant was collected and diluted (1:1) in water prior to LC‐MS/MS analysis.
(§2) Each reaction was monitored over 7 time points.
(§3) The well‐stirred model was used to estimate the hepatic clearance (CLH) due to metabolism.

HLM = experiment: Intrinsic clearance, substrate depletion approach; details: substrate depletion; for Predicted CLuH,int / Predicted CLH: HLM; for Predicted CLH: well‐stirred model
Description: as §1, §2, §3

CYP2D6 = experiment: CYP selective diagnostic inhibition studies in HLM, quinidine; details: quinidine 10 µmol/L
Description: (§4) Reactions were carried out in triplicate in 96 well plates. Each reaction was measured at 2 time points, that is at 0 and 30 minutes. […] Furafylline, KTZ, ticlopidine, and quinidine were used as diagnostic inhibitors for CYP 1A2, 3A4/5, 2C19 and 2D6, respectively. The reactions were initiated by addition of NADPH after a pre‐incubation of 5 minutes at 37°C. All reactions were terminated by the addition of 150 µL ice‐cold ACN. Internal standard (0.2 µmol/L DPZ) was added to ACN prior to termination of the assay. This was followed by centrifugation at 4500 g for 20 minutes. An aliquot (50 µL) supernatant was collected and 5 µL was injected and analyzed by liquid chromatography/tandem mass spectrometry (LC/MS/MS). The percent effect of each inhibitor was the estimated contribution of the inhibited CYP calculated using the relationship below: %contribution=amount remaining with inhibitor‐amount remaining without inhibitor/amount remaining without inhibitor×100.

CYP3A4/5 = experiment: CYP selective diagnostic inhibition studies in HLM, ketoconazole; details: ketoconazole 10 µmol/L
Description: as §4

Structure (SMILES) | half-life at 1 µmol/L [1] [min] | Predicted CLuH,int (HLM) [mL/min/kg] | Predicted CLH (HLM) [mL/min/kg] | Contribution of CYP2D6 (CYP2D6) [%] | Contribution of CYP3A4/5 (CYP3A4/5) [%] | Clearance class, HLM‐mediated (HLM)
O=C(C1CCCCC1)N1CC(=O)N2CCc3ccccc3[C@H]2C1 [S‐PZQ, S‐Praziquantel] | 29.5 | 97.50 | 10.78 | 54 | 131 | –
O=C(C1CCCCC1)N1CC(=O)N2CCc3ccccc3[C@@H]2C1 [R‐PZQ, R‐Praziquantel] | 11.5 | 172.0 | 13.06 | 51 | 33 | high
